On the set-up of series [1]: method as in earlier work. As to conditions: QikProp, ref [25], cited from earlier work; for %HOA predicted human oral absorption: 0 to 100% scale, >80% high; for QPlogS predicted aqueous solubility: log value, recommended -6.5-0.5; for SASA predicted total solvent accessible surface: recommended 300-1000, in Å2 (unit assumed); for QPlogP predicted octanol/water partition coefficient: recommended -2-6.5.

In series [2] the test system is S. mansoni newly transformed schistosoma (NTS). Description: ATP-based luminescence (CellTiter-GLO) viability assay on NTS. The series is classed as cell-based. The method, then: Fig 3 Schistosome viability assays. Panel A: Representative dose-response curves of the inhibitors on NTS. The y-axis indicates the percentage of viability normalized against DMSO (100%) and gambogic acid 10 μM (0%). […] Panel B: dose-response curve of the inhibitors on adult schistosome worm pairs. DMSO (vehicle) was used as negative control (100% viability), the indicated compounds were assayed at 5 (full triangle) 10 (inverted full triangle), 20 (full square) and 50 μM (full circle). Data are expressed as a % severity score (viability) relative to DMSO. Each point represents the average ± standard deviation of three independent experiments.

In the next series the test system is HERG K+ channels. Also on record: method as in earlier work. The following applies: QikProp, log value; recommended below -5; ref [25]; cited from earlier work.
The subject of a further series is Caco-2 cell. Also on record: method as in earlier work. As to conditions: QikProp; >500 great; ref [25]; cited from earlier work.
Another series addresses T1, SmHDAC8 (Schistosoma mansoni, UniProt A5H660).
T1 construct: made in house; host or cells: E. coli
T1 sequence (A5H660 1-440): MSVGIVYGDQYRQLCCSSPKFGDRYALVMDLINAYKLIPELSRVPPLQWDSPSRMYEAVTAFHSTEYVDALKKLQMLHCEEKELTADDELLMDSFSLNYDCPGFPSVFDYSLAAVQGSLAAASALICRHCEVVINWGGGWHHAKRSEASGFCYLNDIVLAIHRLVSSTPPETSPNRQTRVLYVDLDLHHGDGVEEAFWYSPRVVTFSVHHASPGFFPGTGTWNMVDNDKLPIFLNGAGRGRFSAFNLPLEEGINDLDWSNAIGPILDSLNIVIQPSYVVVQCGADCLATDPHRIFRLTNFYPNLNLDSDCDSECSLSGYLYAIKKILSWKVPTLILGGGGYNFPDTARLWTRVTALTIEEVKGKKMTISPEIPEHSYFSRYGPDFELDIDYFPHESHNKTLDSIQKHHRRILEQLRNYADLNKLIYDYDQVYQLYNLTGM
In words: Recombinant SmHDAC8 inhibition assay (Fluor de Lys). The following applies: Fluor-de-Lys substrate 50 μM, inhibitor 25-0.04 μM, average of three experiments ± SD. The series is classed as biochemical. The method, then:
SmHDAC8 protein was produced and purified by a method previously described by us. Inhibition assays of SmHDAC8 were performed as already described in previous publications. Briefly, the commercial Fluor de Lys kit (BML-KI178) of Enzo Life Science was used for testing the residual activity of the recombinant enzyme upon preincubation with each of the selected compounds. First the enzyme was preincubated with the selected compounds 15 min before substrate addition to the mixture. The Fluor de Lys substrate was used at 50 μM. Then, compounds, substrate, and enzyme were incubated together, and the reaction was allowed to proceed for 1 h at 30°C; subsequently, 2 μM TSA within 50 μL of 1× Developer II was added, and the mixture was further incubated for 1 h at 30°C to quench the reaction. Fluorescence was measured in a plate reader (Varioskan Lux, Thermo Fisher Scientific) with excitation at λ = 370 nm and emission at λ = 450 nm.

The nature of series [3]: MTT cytotoxicity assay on L929 fibroblasts. The series is classed as cell-based, murine. As to conditions: mouse, L929 (NCTC clone 929) fibroblast cells, compounds 100-0.78 μM, GA 10-0.078 μM, 2 independent experiments. How it is done:
The NCTC clone 929 (L-929) murine fibroblast isolated from subcutaneous connective tissue (ATCC-CCL-1) were cultured in Dulbecco’s Modified Eagle Medium (DMEM) supplemented with 10 mM Hepes (pH 6.98–7.30), 1 mM l-glutamine, 100 U/ml of penicillin/streptomycin (BioWhittaker, Lonza, EuroClone SpA), and heat-inactivated 10% FBS. All cells were cultured at 37°C in a 5% CO2 humidified incubator.
The MTT method was employed as previously described to determine the viability of fibroblast cell lines. Briefly, cells seeded into 96-well plates at a density of 20,000 cells/well after overnight incubation, were exposed to selected compounds at the indicated concentrations for 24–72 h. Next they were gently washed, incubated with MTT (bromuro di 3-(4,5-dimetiltiazol-2-il)-2,5-diphenyltetrazolium) for 4 h, and processed for color detection with DMSO. The resulting purple solution was spectrophotometrically measured at 570 nm using a Varioskan Lux instrument and Skanit software (Thermo Fisher Scientific).
The optical density values for both assays were expressed as a percentage of cell survival and normalized with the value of cells treated with vehicle (DMSO), and the data were analyzed using GraphPad Prism v9.5.1 software (San Diego, CA, USA).
The cytotoxicity of the hit compounds was assessed in two independent experiments on murine L929 and human BJ fibroblasts at 24 h by MTT assays. Vehicle (DMSO) and Gambogic acid (GA) were used as negative and positive control respectively. The compounds show a safe profile on both cell lines (S2 Table).
The IC50(μM) shown was calculated by dose-response curves of the compounds on murine L929 and human BJ fibroblast cells. […] The data are representative of 2 independent experiments. Gambogic acid (GA) and vehicle (DMSO) were used as positive and negative controls respectively. (DOCX)

Series [4] relates to adult S. mansoni worm pairs (ovary, ootype, vitellarium, gut). In words: Carmine-red staining and confocal laser scanning microscopy of adult worm pairs. The series is classed as cell-based, Schistosoma mansoni. The following applies: 72 h. How it is done: Carmine Red staining was performed as previously described. […] Images were collected as a single stack.
To characterize the phenotypic alterations induced by compound treatment in more detail, carmine-red staining, followed by confocal laser scanning microscopy (CLSM) analysis was performed (Fig 5). Sublethal doses of compounds were chosen to preserve the overall parasite viability and pairing. For each compound, 3–5 couples in two independent experiments were analyzed and images of ootype, ovary, vitellarium, testis, gut, and parenchyma were recorded. […] The vitellarium retains a preserved structure in all analyzed samples. […] Accumulation of carmine-red positive particle aggregates was also present in the lumen of the NF2839-treated male worms (Fig 5).
Fig 5 Confocal microscopy of carmine-red stained adult worm pairs treated with quinolone-based HDAC inhibitors. […] The ovary, ootype and gut are shown. Immature oocytes (io), mature oocytes (mo), ootype (ot) and gastrodermis (ga) are labeled. In the Figure, red filled triangles indicate degenerated mo; empty red triangles indicate egg fragments in the ootypes; asterisks indicate deformed egg in the ootype and carmine red aggregates in the gut lumen, filled red arrows indicate the ga in the gut. Scale bars: 50 μm.

Bounds are passed on as bounds.

`Cn1c(=O)c(OCc2ccc(C(=O)NO)cc2)c(C2CCCCC2)c2ccccc21` [NF2836]: in series [1], the “%HOA predicted human oral absorption” value is 87.94%, the “QPlogS predicted aqueous solubility” value is given as -5.04 mol/dm^3, the “SASA predicted total solvent accessible surface” value is listed as 684.14 and the “QPlogP predicted octanol/water partition coefficient” value is 3.01. Also, the “LD50 on NTS, average +/- SD” value in series [2] (72 h, 0.7-100 μM, three experiments) was 31.2 ± 11.3 µM. In the series on HERG K+ channels, the “QPlogHERG predicted IC50 values for blockage of HERG K+ channels” value is on record as -5.45. Moreover, the “QPPCaco predicted apparent Caco-2 cell permeability” value in the series on Caco-2 cell is 26.454 ×10⁻⁶ cm/s. At SmHDAC8, the 50% inhibitory concentration (IC50) came to 2300 ± 800 nM. For the same compound, in series [3], the half-inhibitory concentration (IC50) at 24 h is greater than 100000 nM. In addition, in series [4] (50 uM), the “samples with decrease of cellularity in the ovary mature compartment” value is recorded as 5/11. Further, the ootype content entry in series [4] (higher concentration (NF2836 50 μM, NF2839 10 μM)) is recorded as “either an empty ootype or no properly developed eggs and/or egg fragments”. Besides, the gut morphology entry in series [4] (higher concentration (NF2836 50 μM, NF2839 10 μM), all worms, in particular males) is “gut dilation with a dramatic decrease in the number of surface amplification and lumen epithelial thinning”. Further, in series [4] (lower concentrations (NF2836 20 μM, NF2839 5 μM)), the “ootype containing damaged eggs” value was 5/7. In addition, in series [4] (sublethal doses), the “overall morphology of the ovary” value was “seemed not to be affected”.
As for `CCN(CC)Cc1ccc(Cn2c(=O)c(OCc3ccc(C(=O)NO)cc3)c(-c3cccnc3)c3ccccc32)cc1` [NF2838], in series [1], the “%HOA predicted human oral absorption” value was 64.57%, the “QPlogS predicted aqueous solubility” value was -4.58 mol/dm^3, the “SASA predicted total solvent accessible surface” value is given as 849.77 and the “QPlogP predicted octanol/water partition coefficient” value is on record as 3.29. The “Normalization: NTS viability normalized against DMSO (100%) and GA (0%)” value in series [2] (log conc. (µM) 1.4, 72 h, single wells) is 107.9%. Further, the “QPlogHERG predicted IC50 values for blockage of HERG K+ channels” value in the series on HERG K+ channels was -7.83. Besides, the “QPPCaco predicted apparent Caco-2 cell permeability” value with Caco-2 cell was 5.607 ×10⁻⁶ cm/s. At SmHDAC8, the half-maximal inhibitory concentration (IC50) was found to be 400 ± 30 nM. For the same compound, the IC50 at 24 h in series [3] lay within 64000 to 100000 nM.

(Values after publication PMC10927086, “Effects of structurally distinct human HDAC6 and HDAC6/HDAC8 inhibitors against S. mansoni larval and adult worm stages” (PLOS Neglected Tropical Diseases, 2024).)
